Test results taken from patent US20230398130A1, “METHODS AND COMPOSITIONS FOR DIFFERENTIATING STEM CELLS” (Massachusetts Institute of Technology, priority 2020, published 2023).

What was measured:
ISC-enriched organoids [1] = experiment: Primary screen, 384-well 2.5-D organoid differentiation (ENR+CD, 6 days): carbachol-induced lysozyme secretion (LYZ.S); type: cell-based, murine; conditions: primary screen; for Dose.FC.LYZ.S: FC vs plate median; for Dose.FC.LYZ.S (log 2 fold change): vs plate median
Source text: (§1) High-throughput screening.

ISC-enriched organoids [2] = experiment: Primary screen, 384-well 2.5-D organoid differentiation (ENR+CD, 6 days, Target Selective Inhibitor Library, vs whole-plate median): ATP (CellTiter-Glo 3D, CTG); conditions: for Dose.FC.CTG / Z.CTG (standard z score) / Dose.FC.CTG (log 2 fold change): primary screen; for Dose.FC.CTG: FC vs plate median; for Z.CTG: standard z score of FC; for Dose.FC.CTG (log 2 fold change): vs plate median
ISC-enriched organoids [3] = experiment: Primary screen, 384-well 2.5-D organoid differentiation (ENR+CD, 6 days): basal lysozyme secretion (LYZ.NS); type: cell-based, murine; conditions: for Dose.FC.LYZ.NS / Z.LYZ.NS (standard z score) / Dose.FC.LYZ.NS (log 2 fold change): primary screen; for Dose.FC.LYZ.NS: FC vs plate median; for Z.LYZ.NS: standard z score of FC; for Dose.FC.LYZ.NS (log 2 fold change): vs plate median
Source text: as §1

`Cc1cnc(-c2cc(N3CCN(C(=O)CCS(C)(=O)=O)CC3)ncc2Cl)c(C)c1` [PF-5274857] was tested, and the Dose.FC.LYZ.S (ISC-enriched organoids [1]; Dose 0.08 uM) was 0.187 log 2 fold change, the Dose.FC.LYZ.S (ISC-enriched organoids [1]; Dose 0.40 uM) was −0.034 log 2 fold change and the Dose.FC.LYZ.S (ISC-enriched organoids [1]; Dose 2.00 uM) was 0.042 log 2 fold change. The Dose.FC.LYZ.S (ISC-enriched organoids [1]; Dose 10.00 uM) was 0.076 log 2 fold change, the Dose.FC.CTG (ISC-enriched organoids [2]; Dose 0.08 uM) was −0.101 log 2 fold change and the Z.CTG (ISC-enriched organoids [2]; Dose 0.08 uM) was −0.242. It also gave a Dose.FC.CTG (ISC-enriched organoids [2]; Dose 0.40 uM) of −0.040 log 2 fold change, a Z.CTG (ISC-enriched organoids [2]; Dose 0.40 uM) of −0.096 and a Dose.FC.CTG (ISC-enriched organoids [2]; Dose 2.00 uM) of 0.055 log 2 fold change. For the same compound, the Z.CTG (ISC-enriched organoids [2]; Dose 2.00 uM) was 0.131, the Dose.FC.CTG (ISC-enriched organoids [2]; Dose 10.00 uM) was −0.076 log 2 fold change and the Z.CTG (ISC-enriched organoids [2]; Dose 10.00 uM) was −0.183. It also gave a Dose.FC.LYZ.NS (ISC-enriched organoids [3]; Dose 0.08 uM) of 0.078 log 2 fold change, a Z.LYZ.NS (ISC-enriched organoids [3]; Dose 0.08 uM) of 0.683 and a Dose.FC.LYZ.NS (ISC-enriched organoids [3]; Dose 0.40 uM) of −0.029 log 2 fold change. For the same compound, the Z.LYZ.NS (ISC-enriched organoids [3]; Dose 0.40 uM) was −0.256, the Dose.FC.LYZ.NS (ISC-enriched organoids [3]; Dose 2.00 uM) was 0.011 log 2 fold change and the Z.LYZ.NS (ISC-enriched organoids [3]; Dose 2.00 uM) was 0.094. The Dose.FC.LYZ.NS (ISC-enriched organoids [3]; Dose 10.00 uM) was 0.074 log 2 fold change and the Z.LYZ.NS (ISC-enriched organoids [3]; Dose 10.00 uM) was 0.642.
In the case of `COc1ccccc1S(=O)(=O)Nc1ccc2c(c1)CN(C)C(=O)N2` [PFI-1 (PF-6405761)], the Dose.FC.LYZ.S (ISC-enriched organoids [1]; Dose 0.08 uM) is reported as 0.061 log 2 fold change, the Dose.FC.LYZ.S (ISC-enriched organoids [1]; Dose 0.40 uM) is reported as 0.104 log 2 fold change and the Dose.FC.LYZ.S (ISC-enriched organoids [1]; Dose 2.00 uM) is reported as −0.117 log 2 fold change. The Dose.FC.LYZ.S (ISC-enriched organoids [1]; Dose 10.00 uM) was −0.194 log 2 fold change, the Dose.FC.CTG (ISC-enriched organoids [2]; Dose 0.08 uM) was 0.142 log 2 fold change and the Z.CTG (ISC-enriched organoids [2]; Dose 0.08 uM) was 0.340. The Dose.FC.CTG (ISC-enriched organoids [2]; Dose 0.40 uM) was 0.390 log 2 fold change, the Z.CTG (ISC-enriched organoids [2]; Dose 0.40 uM) was 0.931 and the Dose.FC.CTG (ISC-enriched organoids [2]; Dose 2.00 uM) was 0.322 log 2 fold change. For the same compound, the Z.CTG (ISC-enriched organoids [2]; Dose 2.00 uM) was 0.770, the Dose.FC.CTG (ISC-enriched organoids [2]; Dose 10.00 uM) was −0.389 log 2 fold change and the Z.CTG (ISC-enriched organoids [2]; Dose 10.00 uM) was −0.929. The Dose.FC.LYZ.NS (ISC-enriched organoids [3]; Dose 0.08 uM) was 0.062 log 2 fold change, the Z.LYZ.NS (ISC-enriched organoids [3]; Dose 0.08 uM) was 0.538 and the Dose.FC.LYZ.NS (ISC-enriched organoids [3]; Dose 0.40 uM) was 0.079 log 2 fold change. The Z.LYZ.NS (ISC-enriched organoids [3]; Dose 0.40 uM) was 0.691, the Dose.FC.LYZ.NS (ISC-enriched organoids [3]; Dose 2.00 uM) was −0.098 log 2 fold change and the Z.LYZ.NS (ISC-enriched organoids [3]; Dose 2.00 uM) was −0.852. It also gave a Dose.FC.LYZ.NS (ISC-enriched organoids [3]; Dose 10.00 uM) of −0.066 log 2 fold change and a Z.LYZ.NS (ISC-enriched organoids [3]; Dose 10.00 uM) of −0.573.
`COc1cc(OC)c(NC(=O)Nc2cc(C)on2)cc1Cl` [PNU-120596] showed a Dose.FC.LYZ.S (ISC-enriched organoids [1]; Dose 0.08 uM) of 0.058 log 2 fold change, a Dose.FC.LYZ.S (ISC-enriched organoids [1]; Dose 0.40 uM) of 0.081 log 2 fold change and a Dose.FC.LYZ.S (ISC-enriched organoids [1]; Dose 2.00 uM) of 0.065 log 2 fold change. For the same compound, the Dose.FC.LYZ.S (ISC-enriched organoids [1]; Dose 10.00 uM) was −0.049 log 2 fold change, the Dose.FC.CTG (ISC-enriched organoids [2]; Dose 0.08 uM) was −0.079 log 2 fold change and the Z.CTG (ISC-enriched organoids [2]; Dose 0.08 uM) was −0.188. It also gave a Dose.FC.CTG (ISC-enriched organoids [2]; Dose 0.40 uM) of 0.085 log 2 fold change, a Z.CTG (ISC-enriched organoids [2]; Dose 0.40 uM) of 0.204 and a Dose.FC.CTG (ISC-enriched organoids [2]; Dose 2.00 uM) of 0.114 log 2 fold change. It also gave a Z.CTG (ISC-enriched organoids [2]; Dose 2.00 uM) of 0.271, a Dose.FC.CTG (ISC-enriched organoids [2]; Dose 10.00 uM) of 0.138 log 2 fold change and a Z.CTG (ISC-enriched organoids [2]; Dose 10.00 uM) of 0.330. For the same compound, the Dose.FC.LYZ.NS (ISC-enriched organoids [3]; Dose 0.08 uM) was 0.108 log 2 fold change, the Z.LYZ.NS (ISC-enriched organoids [3]; Dose 0.08 uM) was 0.944 and the Dose.FC.LYZ.NS (ISC-enriched organoids [3]; Dose 0.40 uM) was −0.011 log 2 fold change. The Z.LYZ.NS (ISC-enriched organoids [3]; Dose 0.40 uM) was −0.098, the Dose.FC.LYZ.NS (ISC-enriched organoids [3]; Dose 2.00 uM) was 0.068 log 2 fold change and the Z.LYZ.NS (ISC-enriched organoids [3]; Dose 2.00 uM) was 0.594. The Dose.FC.LYZ.NS (ISC-enriched organoids [3]; Dose 10.00 uM) was −0.060 log 2 fold change and the Z.LYZ.NS (ISC-enriched organoids [3]; Dose 10.00 uM) was −0.525.
`CC(C)(C)n1nc(-c2ccc(Cl)cc2)c2c(N)ncnc21` [PP2] was tested, and the Dose.FC.LYZ.S (ISC-enriched organoids [1]; Dose 0.08 uM) was 0.058 log 2 fold change, the Dose.FC.LYZ.S (ISC-enriched organoids [1]; Dose 0.40 uM) was 0.145 log 2 fold change and the Dose.FC.LYZ.S (ISC-enriched organoids [1]; Dose 2.00 uM) was 0.113 log 2 fold change. The Dose.FC.LYZ.S (ISC-enriched organoids [1]; Dose 10.00 uM) was 0.027 log 2 fold change, the Dose.FC.CTG (ISC-enriched organoids [2]; Dose 0.08 uM) was −0.693 log 2 fold change and the Z.CTG (ISC-enriched organoids [2]; Dose 0.08 uM) was −1.655. The Dose.FC.CTG (ISC-enriched organoids [2]; Dose 0.40 uM) was 0.130 log 2 fold change, the Z.CTG (ISC-enriched organoids [2]; Dose 0.40 uM) was 0.312 and the Dose.FC.CTG (ISC-enriched organoids [2]; Dose 2.00 uM) was −0.382 log 2 fold change. The Z.CTG (ISC-enriched organoids [2]; Dose 2.00 uM) was −0.913, the Dose.FC.CTG (ISC-enriched organoids [2]; Dose 10.00 uM) was −0.246 log 2 fold change and the Z.CTG (ISC-enriched organoids [2]; Dose 10.00 uM) was −0.587. The Dose.FC.LYZ.NS (ISC-enriched organoids [3]; Dose 0.08 uM) was 0.033 log 2 fold change, the Z.LYZ.NS (ISC-enriched organoids [3]; Dose 0.08 uM) was 0.285 and the Dose.FC.LYZ.NS (ISC-enriched organoids [3]; Dose 0.40 uM) was 0.012 log 2 fold change. The Z.LYZ.NS (ISC-enriched organoids [3]; Dose 0.40 uM) was 0.104, the Dose.FC.LYZ.NS (ISC-enriched organoids [3]; Dose 2.00 uM) was 0.270 log 2 fold change and the Z.LYZ.NS (ISC-enriched organoids [3]; Dose 2.00 uM) was 2.354. For the same compound, the Dose.FC.LYZ.NS (ISC-enriched organoids [3]; Dose 10.00 uM) was −0.027 log 2 fold change and the Z.LYZ.NS (ISC-enriched organoids [3]; Dose 10.00 uM) was −0.235.
For `N#CSc1cc(SC#N)c(N)nc1N` [PR-619], the Dose.FC.LYZ.S (ISC-enriched organoids [1]; Dose 0.08 uM) was 0.122 log 2 fold change, the “Dose.FC.LYZ.S (log 2 fold change)” value (ISC-enriched organoids [1]; Dose 0.40 uM) was 0.047 and the “Dose.FC.LYZ.S (log 2 fold change)” value (ISC-enriched organoids [1]; Dose 2.00 uM) was 0.081. For the same compound, the “Dose.FC.LYZ.S (log 2 fold change)” value (ISC-enriched organoids [1]; Dose 10.00 uM) was −0.193, the Dose.FC.CTG (ISC-enriched organoids [2]; Dose 0.08 uM) was 0.054 log 2 fold change and the Z.CTG (ISC-enriched organoids [2]; Dose 0.08 uM) was 0.130. The “Z.CTG (standard z score)” value (ISC-enriched organoids [2]; Dose 0.40 uM) was 0.266, the “Dose.FC.CTG (log 2 fold change)” value (ISC-enriched organoids [2]; Dose 0.40 uM) was 0.111 and the “Z.CTG (standard z score)” value (ISC-enriched organoids [2]; Dose 2.00 uM) was 0.053. The “Dose.FC.CTG (log 2 fold change)” value (ISC-enriched organoids [2]; Dose 2.00 uM) was 0.022, the “Z.CTG (standard z score)” value (ISC-enriched organoids [2]; Dose 10.00 uM) was −0.764 and the “Dose.FC.CTG (log 2 fold change)” value (ISC-enriched organoids [2]; Dose 10.00 uM) was −0.320. The Dose.FC.LYZ.NS (ISC-enriched organoids [3]; Dose 0.08 uM) was 0.100 log 2 fold change, the Z.LYZ.NS (ISC-enriched organoids [3]; Dose 0.08 uM) was 0.872 and the “Z.LYZ.NS (standard z score)” value (ISC-enriched organoids [3]; Dose 0.40 uM) was 0.448. The “Dose.FC.LYZ.NS (log 2 fold change)” value (ISC-enriched organoids [3]; Dose 0.40 uM) was 0.051, the “Z.LYZ.NS (standard z score)” value (ISC-enriched organoids [3]; Dose 2.00 uM) was 0.495 and the “Dose.FC.LYZ.NS (log 2 fold change)” value (ISC-enriched organoids [3]; Dose 2.00 uM) was 0.057. For the same compound, the “Z.LYZ.NS (standard z score)” value (ISC-enriched organoids [3]; Dose 10.00 uM) was −1.687 and the “Dose.FC.LYZ.NS (log 2 fold change)” value (ISC-enriched organoids [3]; Dose 10.00 uM) was −0.194.
